Values belong to the compound of their own block, whether it stands above or below them.
Legend:
Assay type in all cases: in vivo
[1] = test system: Indian mallow; assay: weed control effect in post-emergence stage (Table 1); design: key: Level 10: completely dead; Level 9: above 95% growth control rate; Level 8: above 90% growth control rate; Level 7: above 80% growth control rate; Level 6: above 70% growth control rate; Level 5: above 60% growth control rate; Level 4: above 50% growth control rate; Level 3: above 20% growth control rate; Level 2: 5%-20% growth control rate; Level 1: below 5% growth control rate; conditions: post-emergence spray at 4-5 leaf stage, 250 g/ha active ingredient with 450 kg/ha water, rated after 3 weeks in greenhouse
Method in brief: (§1)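 Post-emergence spray: compounds dissolved in acetone, Tween 80 added, diluted with water, applied to plants at 4-5 leaf stage. Plants kept 3 wk in greenhouse; activity scored as fresh-weight control rate.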

[2] = test system: bidens bipinnata; assay: as above; design: key: Level 10: completely dead; Level 9: above 95% growth control rate; Level 8: above 90% growth control rate; Level 7: above 80% growth control rate; Level 6: above 70% growth control rate; Level 5: above 60% growth control rate; Level 4: above 50% growth control rate; Level 3: above 20% growth control rate; Level 2: 5%-20% growth control rate; Level 1: below 5% growth control rate; conditions: post-emergence spray at 4-5 leaf stage, 250 g/ha active ingredient with 450 kg/ha water, rated after 3 weeks in greenhouse
Method in brief: as §1

[3] = test system: crab grass; assay: as above; design: key: Level 10: completely dead; Level 9: above 95% growth control rate; Level 8: above 90% growth control rate; Level 7: above 80% growth control rate; Level 6: above 70% growth control rate; Level 5: above 60% growth control rate; Level 4: above 50% growth control rate; Level 3: above 20% growth control rate; Level 2: 5%-20% growth control rate; Level 1: below 5% growth control rate; conditions: post-emergence spray at 4-5 leaf stage, 250 g/ha active ingredient with 450 kg/ha water, rated after 3 weeks in greenhouse
Method in brief: as §1

[4] = test system: echinochloa; assay: as above; design: key: Level 10: completely dead; Level 9: above 95% growth control rate; Level 8: above 90% growth control rate; Level 7: above 80% growth control rate; Level 6: above 70% growth control rate; Level 5: above 60% growth control rate; Level 4: above 50% growth control rate; Level 3: above 20% growth control rate; Level 2: 5%-20% growth control rate; Level 1: below 5% growth control rate; conditions: post-emergence spray at 4-5 leaf stage, 250 g/ha active ingredient with 450 kg/ha water, rated after 3 weeks in greenhouse
Method in brief: as §1

[5] = test system: foxtail; assay: as above; design: key: Level 10: completely dead; Level 9: above 95% growth control rate; Level 8: above 90% growth control rate; Level 7: above 80% growth control rate; Level 6: above 70% growth control rate; Level 5: above 60% growth control rate; Level 4: above 50% growth control rate; Level 3: above 20% growth control rate; Level 2: 5%-20% growth control rate; Level 1: below 5% growth control rate; conditions: post-emergence spray at 4-5 leaf stage, 250 g/ha active ingredient with 450 kg/ha water, rated after 3 weeks in greenhouse
Method in brief: as §1

[6] = test system: rorippa indica; assay: as above; design: key: Level 10: completely dead; Level 9: above 95% growth control rate; Level 8: above 90% growth control rate; Level 7: above 80% growth control rate; Level 6: above 70% growth control rate; Level 5: above 60% growth control rate; Level 4: above 50% growth control rate; Level 3: above 20% growth control rate; Level 2: 5%-20% growth control rate; Level 1: below 5% growth control rate; conditions: post-emergence spray at 4-5 leaf stage, 250 g/ha active ingredient with 450 kg/ha water, rated after 3 weeks in greenhouse
Method in brief: as §1

[7] = test system: corn; assay: post-emergence stage experiment, crop (Table 1); conditions: post-emergence spray at 4-5 leaf stage, 250 g/ha active ingredient with 450 kg/ha water, rated after 3 weeks in greenhouse
Method in brief: as §1

[8] = test system: wheat; assay: post-emergence stage experiment, crop (Table 1); conditions: post-emergence spray at 4-5 leaf stage, 250 g/ha active ingredient with 450 kg/ha water, rated after 3 weeks in greenhouse
Method in brief: as §1

[9] = test system: rice; assay: post-emergence stage experiment, crop (Table 1); conditions: post-emergence spray at 4-5 leaf stage, 250 g/ha active ingredient with 450 kg/ha water, rated after 3 weeks in greenhouse
Method in brief: as §1

[10] = test system: bidens tripartite; assay: weed control effect evaluation in rice field; design: key: Level 10: completely dead; Level 9: above 95% growth control rate; Level 8: above 90% growth control rate; Level 7: above 80% growth control rate; Level 6: above 70% growth control rate; Level 5: above 60% growth control rate; Level 4: above 50% growth control rate; Level 3: above 20% growth control rate; Level 2: 5%-20% growth control rate; Level 1: below 5% growth control rate; conditions: 125 g/ha ai; rice field pot; 14 days after treatment; resistant to pyrazosulfuron-ethyl
Excerpt: (§2) The activity level standard of harmful plant destruction (i.e. growth control rate) is as follows: Rice field soil was loaded into a 1/1,000,000 ha pot. The seeds of echinochloa, scirpus juncoides, bidens tripartite and sagittaria trifolia were sowed and gently covered with soil, then left to stand still in greenhouse in the state of 0.5-1 cm of water storage. The tuber of sagittaria trifolia was planted in the next day or 2 days later. It was kept at 3-4 cm of water storage thereafter. The weeds were treated by dripping the WP or SC water diluents prepared according to the common preparation method of the compounds of the present invention with pipette homogeneously to achieve specified effective amount when echinochloa, scirpus juncoides and bidens tripartite reached 0.5 leaf stage and sagittaria trifolia reached the time point of primary leaf stage. The fertility condition of echinochloa, scirpus juncoides, bidens tripartite and sagittaria trifolia 14 days after the treatment of the compound of the invention and the fertility condition of rice 21 days after the treatment of the compound of the invention respectively with the naked eye.

[11] = test system: echinochloa; assay: weed control effect evaluation in rice field; design: key: Level 10: completely dead; Level 9: above 95% growth control rate; Level 8: above 90% growth control rate; Level 7: above 80% growth control rate; Level 6: above 70% growth control rate; Level 5: above 60% growth control rate; Level 4: above 50% growth control rate; Level 3: above 20% growth control rate; Level 2: 5%-20% growth control rate; Level 1: below 5% growth control rate; conditions: 125 g/ha ai; rice field pot; 14 days after treatment; resistant to pyrazosulfuron-ethyl
Excerpt: as §2

[12] = test system: sagittaria trifolia; assay: weed control effect evaluation in rice field; design: key: Level 10: completely dead; Level 9: above 95% growth control rate; Level 8: above 90% growth control rate; Level 7: above 80% growth control rate; Level 6: above 70% growth control rate; Level 5: above 60% growth control rate; Level 4: above 50% growth control rate; Level 3: above 20% growth control rate; Level 2: 5%-20% growth control rate; Level 1: below 5% growth control rate; conditions: 125 g/ha ai; rice field pot; 14 days after treatment; resistant to pyrazosulfuron-ethyl
Excerpt: as §2

[13] = test system: scirpus juncoides; assay: weed control effect evaluation in rice field; design: key: Level 10: completely dead; Level 9: above 95% growth control rate; Level 8: above 90% growth control rate; Level 7: above 80% growth control rate; Level 6: above 70% growth control rate; Level 5: above 60% growth control rate; Level 4: above 50% growth control rate; Level 3: above 20% growth control rate; Level 2: 5%-20% growth control rate; Level 1: below 5% growth control rate; conditions: 125 g/ha ai; rice field pot; 14 days after treatment; resistant to pyrazosulfuron-ethyl
Excerpt: as §2

[14] = test system: rice (japonica rice); assay: transplanted rice safety evaluation; conditions: 125 g/ha ai; treated 5 days after transplantation; 21 days after treatment
Protocol: The activity level standard of harmful plant destruction (i.e. growth control rate) is as follows: In addition, the rice field soil that loaded into the 1/1,000,000 ha pot was leveled to keep water storage at 3-4 cm depth. The 3 leaf stage rice (japonica rice) was transplanted at 3 cm of transplanting depth the next day. The compound of the present invention was treated by the same way after 5 days of transplantation. The fertility condition of echinochloa, scirpus juncoides, bidens tripartite and sagittaria trifolia 14 days after the treatment of the compound of the invention and the fertility condition of rice 21 days after the treatment of the compound of the invention respectively with the naked eye.

Compound: Cn1nc(C2CC2)c(C(=O)c2ccc(C(F)(F)F)c(N3CCCC3=O)c2Cl)c1O [Compound 025]
- weed control effect, Indian mallow (level) [1]: 10
- weed control effect, Bidens bipinnata (level) [2]: 8 (Level 8: above 90% growth control rate)
- weed control effect, Crab grass (level) [3]: 6 (Level 6: above 70% growth control rate)
- weed control effect, Echinochloa (level) [4]: 6 (Level 6: above 70% growth control rate)
- weed control effect, Green foxtail (level) [5]: 10
- weed control effect, Rorippa indica (level) [6]: 10
- effect on crop, Corn (level) [7]: 4 (Level 4: above 50% growth control rate)
- effect on crop, Wheat (level) [8]: 3 (Level 3: above 20% growth control rate)
- effect on crop, Rice (level) [9]: 6 (Level 6: above 70% growth control rate)
- Bidens tripartite weed control effect (activity level) [10]: 8 (Level 8: above 90% growth control rate)
- Echinochloa weed control effect (activity level) [11]: 9 (Level 9: above 95% growth control rate)
- Sagittaria trifolia weed control effect (activity level) [12]: 10
- Scirpus juncoides weed control effect (activity level) [13]: 10
- Rice (activity level, transplanted rice safety) [14]: 0

- effect on crop, Corn (level) [7]: 0
- effect on crop, Wheat (level) [8]: 0
Compound: CCn1nc(C)c(C(=O)c2ccc(C(F)(F)F)c(-n3cccn3)c2Cl)c1O [Compound 128]
- weed control effect, Indian mallow (level) [1]: 3 (Level 3: above 20% growth control rate)
- weed control effect, Bidens bipinnata (level) [2]: 6 (Level 6: above 70% growth control rate)
- weed control effect, Crab grass (level) [3]: 1 (Level 1: below 5% growth control rate)
- weed control effect, Echinochloa (level) [4]: 10
- weed control effect, Green foxtail (level) [5]: 10
- weed control effect, Rorippa indica (level) [6]: 7 (Level 7: above 80% growth control rate)
- effect on crop, Rice (level) [9]: 5 (Level 5: above 60% growth control rate)
- Bidens tripartite weed control effect (activity level) [10]: 6 (Level 6: above 70% growth control rate)
- Echinochloa weed control effect (activity level) [11]: 10
- Sagittaria trifolia weed control effect (activity level) [12]: 8 (Level 8: above 90% growth control rate)
- Scirpus juncoides weed control effect (activity level) [13]: 10
- Rice (activity level, transplanted rice safety) [14]: 1 (Level 1: below 5% growth control rate)

Reference: patent US11076594B2, “Pyrazolone compound or salt thereof, preparation method therefor, herbicide composition and use thereof” (QINGDAO KINGAGROOT CHEMICAL COMPOUNDS CO., LTD., priority 2015, dated 2021)
